Literature values in patent publication US8609722B2, “Anesthetic composition for topical administration comprising lidocaine, prilocaine and tetracaine” (priority 2003, dated 2013).
Where a name gives a salt, the structure may show the parent alone.

Columns and labels:
[1] = test system: erythrocyte heme protein; conditions: the very young may be more susceptible

CCCNC(C)C(=O)Nc1ccccc1C (centres unmarked) [prilocaine hydrochloride]
dose above which symptoms of methemoglobinaemia usually occur [1]: exceed 8 mg per kg body-weight
solubility in water: readily soluble in water
